Measured values as given in the supplement of paper PMC10307832.

What was measured:
Assay in all cases: relative viability (nuclei count vs DMSO), 5 days (fraction); higher = more cells survive
[1] = system: NCI-H661
Procedure, shortened: (§1)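 Relative viability equals treated-well nuclei counts divided by vehicle-well nuclei counts. Counts came from 4× images of lung cancer cell lines grown in 1536-well plates for 5 days after pin-tool dosing on the day after seeding. Dosing used one drug alone or a fixed anchor-drug dose plus five library-drug doses (not always all listed) in √10 steps, and values are medians of duplicate plates.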

[2] = system: PC-14
Procedure, shortened: as §1

[3] = system: HCC-366
Procedure, shortened: as §1

[4] = system: CAL-12T
Procedure, shortened: as §1

[5] = system: SW 900
Procedure, shortened: as §1

[6] = system: NCI-H2009
Procedure, shortened: as §1

[7] = system: NCI-H1437
Procedure, shortened: as §1

[8] = system: NCI-H1666
Procedure, shortened: as §1

[9] = system: NCI-H460
Procedure, shortened: as §1

[10] = system: 201T
Procedure, shortened: as §1

[11] = system: COR-L 105
Procedure, shortened: as §1

[12] = system: NCI-H3122
Procedure, shortened: as §1

[13] = system: HARA
Procedure, shortened: as §1

[14] = system: LOU-NH91
Procedure, shortened: as §1

[15] = system: LK-2
Procedure, shortened: as §1

[16] = system: BEN
Procedure, shortened: as §1

[17] = system: NCI-H441
Procedure, shortened: as §1

[18] = system: NCI-H2170
Procedure, shortened: as §1

[19] = system: NCI-H1650
Procedure, shortened: as §1

[20] = system: EKVX
Procedure, shortened: as §1

O=c1cc(N2CCOCC2)oc2c(-c3cccc4c3sc3ccccc34)cccc12 + Nc1nc2[nH]cc(CCc3ccc(C(=O)N[C@@H](CCC(=O)O)C(=O)O)cc3)c2c(=O)[nH]1 [Pemetrexed] (partner 0.2 µM)
relative viability ([1]; first compound 0.01 µM): 0.867
relative viability ([1]; first compound 0.03162 µM): 0.898
relative viability ([1]; first compound 0.1 µM): 0.95
relative viability ([1]; first compound 0.3162 µM): 0.925
relative viability ([1]; first compound 1 µM): 0.892
relative viability ([2]; first compound 0.01 µM): 0.133
relative viability ([2]; first compound 0.03162 µM): 0.153
relative viability ([2]; first compound 0.1 µM): 0.131
relative viability ([2]; first compound 0.3162 µM): 0.114
relative viability ([2]; first compound 1 µM): 0.132
relative viability ([3]; first compound 0.01 µM): 0.159
relative viability ([3]; first compound 0.03162 µM): 0.181
relative viability ([3]; first compound 0.1 µM): 0.149
relative viability ([3]; first compound 0.3162 µM): 0.144
relative viability ([3]; first compound 1 µM): 0.186
relative viability ([4]; first compound 0.01 µM): 1.15
relative viability ([4]; first compound 0.03162 µM): 1.16
relative viability ([4]; first compound 0.1 µM): 1.29
relative viability ([4]; first compound 0.3162 µM): 1.13
relative viability ([4]; first compound 1 µM): 1.09
relative viability ([5]; first compound 0.03162 µM): 0.452
relative viability ([5]; first compound 0.1 µM): 0.425
relative viability ([5]; first compound 0.3162 µM): 0.51
relative viability ([5]; first compound 1 µM): 0.507
relative viability ([6]; first compound 0.01 µM): 0.929
relative viability ([6]; first compound 0.03162 µM): 1.04
relative viability ([6]; first compound 0.1 µM): 1.01
relative viability ([6]; first compound 0.3162 µM): 1.01
relative viability ([6]; first compound 1 µM): 0.998
relative viability ([7]; first compound 0.01 µM): 0.327
relative viability ([7]; first compound 0.03162 µM): 0.292
relative viability ([7]; first compound 0.1 µM): 0.313
relative viability ([7]; first compound 0.3162 µM): 0.314
relative viability ([7]; first compound 1 µM): 0.314
relative viability ([8]; first compound 0.01 µM): 0.944
relative viability ([8]; first compound 0.03162 µM): 0.912
relative viability ([8]; first compound 0.1 µM): 0.896
relative viability ([8]; first compound 0.3162 µM): 0.779
relative viability ([8]; first compound 1 µM): 0.82
relative viability ([9]; first compound 0.01 µM): 0.0597
relative viability ([9]; first compound 0.03162 µM): 0.0598
relative viability ([9]; first compound 0.1 µM): 0.0653
relative viability ([9]; first compound 0.3162 µM): 0.0653
relative viability ([9]; first compound 1 µM): 0.0594
relative viability ([10]; first compound 0.01 µM): 0.326
relative viability ([10]; first compound 0.03162 µM): 0.316
relative viability ([10]; first compound 0.1 µM): 0.338
relative viability ([10]; first compound 0.3162 µM): 0.397
relative viability ([10]; first compound 1 µM): 0.359
relative viability ([11]; first compound 0.01 µM): 1.09
relative viability ([11]; first compound 0.03162 µM): 0.949
relative viability ([11]; first compound 0.1 µM): 1.1
relative viability ([11]; first compound 0.3162 µM): 0.997
relative viability ([11]; first compound 1 µM): 0.854
relative viability ([12]; first compound 0.01 µM): 0.207
relative viability ([12]; first compound 0.03162 µM): 0.206
relative viability ([12]; first compound 0.1 µM): 0.197
relative viability ([12]; first compound 0.3162 µM): 0.21
relative viability ([12]; first compound 1 µM): 0.205
relative viability ([13]; first compound 0.01 µM): 0.217
relative viability ([13]; first compound 0.03162 µM): 0.271
relative viability ([13]; first compound 0.1 µM): 0.225
relative viability ([13]; first compound 0.3162 µM): 0.238
relative viability ([13]; first compound 1 µM): 0.262
relative viability ([14]; first compound 0.01 µM): 0.39
relative viability ([14]; first compound 0.03162 µM): 0.384
relative viability ([14]; first compound 0.1 µM): 0.377
relative viability ([14]; first compound 0.3162 µM): 0.386
relative viability ([14]; first compound 1 µM): 0.425
relative viability ([15]; first compound 0.01 µM): 0.278
relative viability ([15]; first compound 0.03162 µM): 0.238
relative viability ([15]; first compound 0.1 µM): 0.296
relative viability ([15]; first compound 0.3162 µM): 0.238
relative viability ([15]; first compound 1 µM): 0.275
relative viability ([16]; first compound 0.01 µM): 0.79
relative viability ([16]; first compound 0.03162 µM): 0.746
relative viability ([16]; first compound 0.1 µM): 0.653
relative viability ([16]; first compound 0.3162 µM): 0.89
relative viability ([16]; first compound 1 µM): 0.705
relative viability ([17]; first compound 0.01 µM): 0.256
relative viability ([17]; first compound 0.03162 µM): 0.272
relative viability ([17]; first compound 0.1 µM): 0.299
relative viability ([17]; first compound 0.3162 µM): 0.276
relative viability ([17]; first compound 1 µM): 0.235
relative viability ([18]; first compound 0.01 µM): 0.253
relative viability ([18]; first compound 0.03162 µM): 0.251
relative viability ([18]; first compound 0.1 µM): 0.263
relative viability ([18]; first compound 0.3162 µM): 0.267
relative viability ([18]; first compound 1 µM): 0.255
relative viability ([19]; first compound 0.01 µM): 0.397
relative viability ([19]; first compound 0.03162 µM): 0.374
relative viability ([19]; first compound 0.1 µM): 0.35
relative viability ([19]; first compound 0.3162 µM): 0.341
relative viability ([19]; first compound 1 µM): 0.34
relative viability ([20]; first compound 0.01 µM): 0.41
relative viability ([20]; first compound 0.03162 µM): 0.384
relative viability ([20]; first compound 0.1 µM): 0.419
relative viability ([20]; first compound 0.3162 µM): 0.365
relative viability ([20]; first compound 1 µM): 0.362
